Source: PubChem BioAssay AID977607 (Broad Institute, 2014)
Several values for one entry are separate records, joined by “and”; a condition that tells them apart may be missing. Identical values can stand only once. Activity calls are given as the source filed them.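 The calls were made as follows: active = curve reaches 40% activation over neutral controls at an AC40 no higher than the top valid tested concentration; inconclusive = no clear call, values can overlap the other calls; inactive = signal moving opposite to the expected increase, and the rest.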

Tested on: INS-1E GLuc insulin secretion reporter, luminescence, 2-3 h
Experiment: activators of glucose-dependent insulin secretion, dose response, cell-based, INS-1E, Gaussia luciferase, luminescence, cherry-pick, set 2 (AID 977607)

SMILES | AC40
CC(C)(C)c1ccc(OCC(=O)Nc2ccc(-c3nc4cccnc4o3)cc2)cc1 | 9.2 µM
COc1ccccc1C(=O)Nc1c2c(nn1-c1cccc(C)c1C)CS(=O)(=O)C2 | 7.77 µM
Cc1ccc(C)c(OCC(=O)N/N=C/c2c(C)nn(-c3ccccc3)c2Cl)c1C | 3.2 µM
Cc1ccc2nc(Cl)nc(-c3ccccc3)c2c1 | 12.2 µM
COc1ccc(-c2ccncc2)cc1OC | 13 µM
Cc1cc(OCCCN2CCC(C(O)(c3ccccc3)c3ccccc3)CC2)ccc1Br | 4.77 µM
COc1ccc(NC(=O)Cn2cnc3c(cnn3-c3ccc(C)c(C)c3)c2=O)c(OC)c1 | 5.6 µM
CC(C)(C)C1CCc2c(sc(NC(=O)c3cccs3)c2C(N)=O)C1 (centres undefined) | 18.3 µM
NC[C@H](Cc1ccccc1)NCCc1cc(C(F)(F)F)cc(C(F)(F)F)c1 | 14.9 µM
O=C(Nc1ccc2ccccc2c1)c1cccc2ccccc12 | 8.55 µM
COc1ccc(CN2CCN(Cc3ccccc3F)CC2)cc1 | > 35 µM (inactive)
Cc1ccc(NC(=O)CNC(=O)c2sc3ccccc3c2Cl)nc1 | 14.3 µM
CC(=O)c1nn(-c2ccc(Br)cc2)cc1C(=O)c1ccccc1 | 8.45 µM
CC(=O)Nc1c(C(=O)C2CC2)oc2ccccc12 | 6.8 µM
CN(C(=O)c1ccc2c(c1)SC1=NS(=O)(=O)CCN12)C(c1ccccc1)c1ccccc1 | 0.518 µM
CCOc1ccc2nc(NCCNC(=O)Nc3ccccc3)c(C#N)cc2c1 | 5.63 µM
COc1ccc(C2=Nn3c(nnc3-c3ccccc3F)SC2)cc1OCC1CC1 | 1.23 µM
CCOc1ccc(/C=N/NC(=O)c2cc(-c3ccco3)nc3ccccc23)cc1 | 8.25 µM
CC(C)CC#Cc1ccc2c(c1)O[C@H](CN(C)C(=O)C1CCCCC1)[C@@H](C)CN([C@@H](C)CO)S2(=O)=O | 10.2 µM
CC1(Cc2cc(Cl)ccc2C(F)(F)F)C(=O)Nc2cc(C(F)(F)F)ccc21 (centres undefined) | 34 µM
COc1ccc(CCN(C)C(=O)c2oc3ccccc3c2C)cc1OC | 7.06 µM
O=C(NC(=S)Nc1ccc(NC(=O)c2cccs2)cc1)c1cc2ccccc2o1 | 14.3 µM

SMILES | AC40
O=C(Nc1ccccc1)c1nnsc1S(=O)(=O)c1ccc(Cl)cc1 | 1.21 µM
Cc1cc(C)nc(NS(=O)(=O)c2ccc(N/C=C/C(=O)c3ccc(Cl)c(Cl)c3)cc2)n1 | 3.7 µM
COC(=O)C1=C(C)N(Cc2cccc(C(F)(F)F)c2)C(=NCc2ccc(OC)cc2)NC1c1cccc(Cl)c1 (centres undefined) | 9.96 µM
CCS(=O)(=O)Nc1ccc(-c2cc(-c3ccccc3)c3cc(C)ccc3n2)cc1 | 6.45 µM
COc1ccc(-c2cnnn2-c2ccc(N)cc2)cc1OC | > 35 µM (inactive)
CCCCc1c(Cc2ccccc2)ncn1CCc1ccccc1OC | 14.3 µM
c1ccc(-c2nnc3n2-c2ccccc2SC3)cc1 | > 35 µM (inactive)
COc1ccc(N2CCN(c3ccc(NC(=O)C4CCCCC4)cc3C#N)CC2)cc1 | 2.8 µM
C/C(=N/NC(=O)c1ccc(Br)s1)c1ccncc1 | > 35 µM (inactive)
O=C(NCC1OCCc2ccccc21)c1ccc(NC(=O)c2ccc(Cl)cc2)cc1 (centres undefined) | 5.18 µM
CCCc1nnc2n1N=C(c1ccc(OC)c(OC)c1)CS2 | 2.98 µM
CC(C)(C(=O)N1CCC1(C)C(=O)NS(=O)(=O)c1ccc(Br)cc1)c1ccccc1 (centres undefined) | 12.7 µM
CC(C)Nc1nc(Cl)nc(NC(C)C)n1 | 11.6 µM
COC(=O)c1ccc(C2C(Oc3ccc(OC)cc3)C(=O)N2CCc2ccc(F)cc2)cc1 (centres undefined) | 12.6 µM
Cc1c(O)cnc2nn(-c3ccccc3)c(=N)n12 | > 35 µM (inactive)
Cc1ccc(-c2ccc(C3[C@@H]4CN(Cc5cccc(F)c5)C[C@H]3N4)cc2)cc1 (some centres undefined) | 3.07 µM
COc1cc(CN2[C@@H]3CNC[C@H]2C3c2ccc(/C=C/c3ccccc3)cc2)cc(OC)c1 (some centres undefined) | 10.3 µM
COc1ccc(CCNS(=O)(=O)c2cn(C)cn2)cc1OC | 4.84 µM
O=c1c(C=Nc2ccc(Oc3ccccc3)cc2)c[nH]n1-c1cccc(Cl)n1 | 6.27 µM
CCCCc1c(-c2ccc(F)cc2F)ncn1CCc1ccccc1OC | 8.96 µM
Cc1cccc(-c2ccc(C3[C@@H]4CN(Cc5cccc(F)c5)C[C@H]3N4)cc2)c1 (some centres undefined) | 12.3 µM and 2.97 µM
CCOC(=O)c1cnc2c(Cl)c(Cl)ccc2c1NCCN1CCOCC1 | > 35 µM (inactive)

SMILES | AC40
CC(C)(C)S(=O)N1Cc2cc(C(=O)Nc3ccc(-c4ccccc4)cc3)nc(-c3cccc(-c4cccc(F)c4)c3)c2[C@@H]1CCO (some centres undefined) | 6.27 µM
CN(C)Cc1ccccc1Sc1ccc2c(c1)CCCC2 | 16.6 µM
COc1ccc(S(=O)(=O)N2CCc3ccccc32)cc1C(=O)Nc1ccc(C(N)=O)cc1 | 16.3 µM
O=C(N/N=C/c1ccc(O)cc1O)NC12CC3CC(CC(C3)C1)C2 | 18.1 µM
COc1ccc(OC)c(NC(=O)c2cc3c(Cl)nc4ccccc4c3s2)c1 | 10.2 µM
COC(=O)c1ccc2c(=O)[nH]c(CSc3nc(-c4ccc(F)cc4)cs3)nc2c1 | 5.86 µM
CCOC(=O)[C@]12Cc3c(cc(OC)c(OC)c3OC)[C@H]1N(C1CCCCC1)C(=O)c1cc(OC)ccc12 | 15.5 µM
COc1ccc(CN(C)C(=O)Cn2cc(C)c(=O)[nH]c2=O)cc1OC | > 35 µM (inactive)
CCc1c(C)sc(NC(=O)c2cc(-c3ccc(OC)c(OC)c3)on2)c1C#N | 9.5 µM
OC(c1ccccc1)(c1nc(-c2cccc(C(F)(F)F)c2)cs1)C(F)(F)F (centres undefined) | 10.3 µM
CC1(C(=O)NS(=O)(=O)c2ccc(Cl)s2)CCN1C(=O)C1(c2ccccc2)CCCC1 (centres undefined) | 10.7 µM
CC(C)(C)c1nc2ccc(Cl)cn2c1CC1CCCCC1 | 16 µM
COc1ccc(C(C)NCCC(c2ccc(OC(C)C)cc2)c2ccccc2OC)cc1 (centres undefined) | 7.95 µM
COc1ccc(CCN(C)C(=O)COc2cccc(-n3cnnn3)c2)cc1OC | > 35 µM (inactive)
CC(=O)Nc1cc(-c2cccc(C(=O)NCCN(C)C)c2)cn2c(-c3cccc(C(F)(F)F)c3)cnc12 | 14.7 µM
Cc1ccc(S(=O)(=O)C=CS(=O)(=O)c2ccc(C)cc2)cc1 | 0.224 µM
CCn1cc(S(=O)(=O)NCCc2ccc(OC)c(OC)c2)cn1 | 3.87 µM
CCCCn1c(N2CCCC2)nc2c1c(=O)[nH]c(=O)n2C | 5.57 µM
COc1ccc(-c2ccc(-c3noc(-c4ccco4)n3)c(OC)n2)cc1 | 7.71 µM
C=CCn1cc(Cl)cc(C(=O)Nc2ccccc2)c1=O | 19.7 µM
COc1ccc(C2=Nn3c(nnc3-c3ccncc3)SC2)cc1OC | 13.3 µM
Cn1c(=O)c2c(nc3n2CCCN3CCc2ccccc2)n(C)c1=O | > 35 µM (inactive)

SMILES | AC40
COc1nc(-c2ccc(Cl)cc2)ccc1-c1noc(-c2ccco2)n1 | 19.5 µM
CCOC(=O)c1c(-n2cnnn2)sc2c1CCCC2 | 14.6 µM
CCCCCCN1C[C@H](n2cc(COC(=O)c3ccccc3)nn2)[C@@H](O)C[C@@H]1c1ccc(C)cc1 | 6.42 µM
COc1ccc(-c2ccc(C3[C@@H]4CN(Cc5cccc(OC)c5)C[C@H]3N4)cc2)cc1 (some centres undefined) | 2.47 µM
CCC1OC(C2CC2)CC2=C1C(=O)OC(C)(C)O2 (centres undefined) | 4.79 µM
CCCNC(=O)c1nnsc1S(=O)(=O)c1ccc(Cl)cc1 | 1.63 µM
O=c1c2cc(F)ccc2sn1-c1ccccc1Cl | 1.85 µM
O=C(N/N=C\c1ccc(CNS(=O)(=O)c2ccc(Cl)cc2)o1)C(=O)Nc1ccc(Oc2ccccc2)cc1 | 13.9 µM
Cn1c(=O)c(C(=O)NNC(=O)c2cccc(Cl)c2)c(O)c2ccccc21 | 7.02 µM
Cc1cccc(S(=O)(=O)N2CCCCN3[C@@H](CO)[C@@H](c4ccc(C#CC(C)C)cc4)[C@@H]3C2)c1 | 18.2 µM
COc1ccc(NC(=O)c2sc3nc(N4CCOCC4)c4c(c3c2N)CC(C)(C)OC4)c(OC)c1 | 6.55 µM
O=c1[nH][nH]c2c1C(c1ccc(Cl)c(Cl)c1)OC(CCc1ccccc1)C2 (centres undefined) | 16.9 µM
COc1ccccc1CCn1cnc(-c2ccc(F)cc2)c1CC(C)C | 7.14 µM
C/C=C/c1ccc(C2[C@H]3CNC[C@@H]2N3Cc2cc(-c3ccccc3)on2)cc1 (some centres undefined) | 9.74 µM
CNC[C@@H](Cc1ccccc1)NC[C@@H](CC1CCCCC1)NCCCc1ccccc1 | > 35 µM (inactive)
CCCCCc1cc(=O)oc2c(C(CCN3CCCC(C)C3)c3ccc(OC)cc3)c(OC)cc(OC)c12 (centres undefined) | 12 µM
N#Cc1c(N)n(C2CCCCC2)c2nc3ccccc3nc12 | 18.9 µM
Fc1cccc(CN2C[C@@H]3N[C@H](C2)[C@@H]3c2ccc(-c3cccc(F)c3)cc2)c1 | 3.93 µM
CC(=O)N(C1CC(C)C(C#N)(C#N)C1(C#N)C#N)N(C)C (centres undefined) | 1.85 µM
CCOC(=O)c1c(-c2ccc(-c3ccccc3)cc2)csc1NC(=O)CNCCN(C)C | 8.58 µM
O=C(COc1ccccc1)Nc1sc2c(c1C(=O)NCc1cccnc1)CCCC2 | 13.1 µM
Cc1ccc(-c2nnc3sc(-c4ccncc4)nn23)cc1 | 13.5 µM

SMILES | AC40
COc1ccc(C(O)c2nc(-c3ccc(OC)c(OC)c3)cs2)cc1 (centres undefined) | > 35 µM (inactive)
Cc1nc2c(=O)n(C)c(=O)n(C)c2nc1Cl | 25.8 µM
COc1ccc(S(=O)(=O)Nc2ccccc2OC)cc1N=Nc1c(O)[nH]c(=S)[nH]c1=O | 16.4 µM
CC(C)(C)c1ccccc1OCC(O)CN1CCN(c2ccccn2)CC1 (centres undefined) | 13.7 µM
Nc1nc(N)c2cc(Sc3ccc(Cl)cc3)ccc2n1 | 7.16 µM
O=C1Nc2cnc(Cl)nc2Nc2ccccc21 | > 35 µM (inactive)
COc1ccccc1CCn1cnc(-c2cccc(F)c2)c1CC(C)C | 11.3 µM
CCOC(=O)Cc1nn(Cc2ccccc2)c(=O)c2ccccc12 | 1.61 µM
O=c1c2ccccc2sn1-c1ccccc1F | 3.87 µM
Cc1nc(N)c(C#N)c(-c2cccnc2)c1C | 14.2 µM
CCn1c(SCc2cc(=O)[nH]c3ccccc23)nc2c1c(=O)n(C)c(=O)n2C | 1.42 µM
Cc1cc(NC(=O)c2ccccc2F)n(-c2nc3ccccc3[nH]2)n1 | 5.86 µM
O=c1c2ccc(F)cc2sn1-c1ccccc1 | 4.2 µM
CCC(=O)Nc1ccc(NC(=S)NC(=O)c2oc3ccccc3c2C)cc1 | 5.76 µM
Cc1ccc2nc(-c3ccc(NC(=O)COC(=O)c4ccco4)cc3)sc2c1 | 4.42 µM
OC[C@@H]1[C@@H](c2ccc(C#CC3CCCC3)cc2)[C@H]2CN(CCC(F)(F)F)CCCCN12 | 8.56 µM
C=CCn1c(-c2csc(-c3ccc(OC)c(OC)c3)n2)n[nH]c1=S | 1.01 µM
Cc1nnn(-c2nonc2N)c1C(=O)N/N=C/c1cccc2ccccc12 | 7.29 µM
NC(CCc1ccccc1)c1csc(Nc2ccc(C(F)(F)F)cn2)n1 (centres undefined) | 10.4 µM
NC(N)=N/N=C/c1ccc(N(c2ccccc2)c2ccccc2)cc1 | 5.68 µM
NC1=NC[C@H](c2ccccc2)N1CCCCC1CCCCC1 | 28.8 µM
